Results on one compound are retold here after publication PMC9101087, “A Sensitive LC-MS/MS Method for the Simultaneous Determination of Two Thia-Analogous Indirubin N-Glycosides and Indirubin-3′-Monoxime in Plasma and Cell Culture Medium” (Molecules, 2022).

This data set is described as follows: Quantification of KD87 in plasma of mice after intraperitoneal injection. The class given is in vivo. The note with it: male, NSG (NOD.Cg-Prkdc^scid Il2rg^tm1Wjl/SzJ), mouse, ip, 20 mg/kg, 20 mg/kg intraperitoneal, mean ± SD n = 8. As to the method:
To apply the method validated for plasma, an animal experiment was performed in which KD87 (20 mg/kg body weight) was injected intraperitoneally into NOD.Cg-Prkdc^scid Il2rg^tm1Wjl/SzJ (NSG) mice followed by determination of the plasma concentration of KD87 at two fixed time points, i.e., 30 and 60 min, after administration. For this initial investigation, KD87 was selected because it has shown viability-reducing effects on a large panel of tumor cells both in the present study and in a previous study, making it a good candidate for future in vivo experiments.
Before starting plasma extraction and protein precipitation, 10 µL of the sample plasma was mixed with 40 µL of human plasma. After appropriate sample preparation by protein precipitation or liquid-liquid extraction, KD87 was successfully detected and quantified by LC-MS/MS. Here, for each blood draw, two separate plasma aliquots were extracted or precipitated and subsequently measured. In addition, the MRM transitions of the aglycone KD88 were monitored during the measurement to observe possible deglycosylation of KD87. […] Individual concentrations are presented for each mouse separately (Figure 5A,B) and as averages of the four treated mice (Figure 5C). For protein precipitation, a concentration of 1.89 ± 0.30 µM was determined 30 min after intraperitoneal injection, increasing to 2.93 ± 0.36 µM after 60 min (Figure 5C). Similar values are obtained after liquid-liquid extraction of plasma sample, which yielded a concentration of 2.19 ± 0.32 µM and 3.46 ± 0.50 µM after 30 and 60 min, respectively (Figure 5C).
Figure 5 Quantification of KD87 in plasma of mice 30 and 60 min after intraperitoneal injection of KD87 (20 mg/kg body weight). Prior to sample processing, mouse plasma was diluted 1:5 with human plasma. Shown are the individual values of KD87 in mouse plasma (A) after protein precipitation and (B) after liquid-liquid extraction, as well as (C) the average KD87 concentration values of all four mice for both processing methods. (A,B): The values of two separately processed plasma aliquots of one blood sample per mouse are shown. (C): The bar chart summarizes the results of measurements from panels (A,B), expressed as mean ± standard deviation (SD) of n = 8 values per column.
For experiments, four 13-week-old male NSG mice with a body weight between 20 and 30 g were used. KD87 was administered via intraperitoneal injection at a dose of 20 mg/kg body weight. For this purpose, KD87 was dissolved in ethanol and Cremophore EL (1:1) to a concentration of 6 mg/mL, and diluted further in sterile saline solution (NaCl 0.9%, B. Braun Melsungen AG, Melsungen, Germany) to a final concentration of 2 mg/mL. Per mouse, a total volume of 10 mL/kg of body weight was administered. […]

Turning to `O=C1/C(=C2/C(=O)N([C@@H]3O[C@H](CO)[C@@H](O)[C@H](O)[C@H]3O)c3ccccc32)Sc2ccccc21` [KD87, 3-[3′-oxo-benzo[b]thiophen-2′-(Z)-ylidene]-1-(β-D-glucopyranosyl)-oxindole], where the note is “liquid-liquid extraction”, the concentration at 30 min stood at 2190 ± 320 nM and the concentration at 60 min is 3460 ± 500 nM. Further, where the note is “protein precipitation”, the concentration at 30 min turned out to be 1890 ± 300 nM and the concentration at 60 min came out at 2930 ± 360 nM.
